# In paper PMC7203153, “Rational identification and characterisation of peptide ligands for targeting polysialic acid” (Scientific Reports, 2020):
# Marks after values point to notes of the source that are not given here. Where a SMILES comes first, the peptide text is derived from it.
# Test: Peptide microarray affinity screening against α-2,8-PSA (colominic acid)
# Type: binding, Escherichia coli
# Conditions: 10 μM CA, pH 7.4
# Method: (§1) Peptide library synthesis, microarray preparation, and microarray screening were performed as described previously[25] with the following specifications. Siglec-related sequences were N-terminally acetylated to match the charge of the corresponding protein fragment. All peptides were printed in triplicate (60 nL spots), and each initial affinity screening was carried out at least three times. Screening was conducted with 10 μM colominic acid (CA; 5 mL per microarray), the Escherichia coli homolog of α-2,8-PSA identical in structure to human-derived PSA[67], and with antibody-based chemiluminescent detection of CA. For selectivity screening, microarrays were challenged with 10 μM CA with 0, 0.1, 1, and 10 μM α-2,8/9-PSA in separate conditions (5 mL total volume each), where molar concentrations were based on molecular weight estimation of synthesized 2,8/9-PSA (details on α-2,8/9-PSA production, purification, and analysis are provided in Supplementary Information). Selectivity screening with monomeric sialic acid was conducted with mass and molar equivalents of N-acetylneuraminic acid (Rose Scientific, Ltd.) along with 10 μM CA (5 mL total volume each). The mass equivalent amount of sialic acid (specifically, 970 μM sialic acid for a given volume of 10 μM CA) was calculated for CA of an average degree of polymerization of 100. For study of pH-dependent binding, affinity screening with CA was performed using PBS buffers of pH 6.0, 7.0, 7.4, and 8.0 (10 mM phosphate, 100 mM NaCl). The impact of NaCl on peptide binding was assessed at pH 7.4 with 0, 100, and 200 mM NaCl.
# Microarray image and data analysis was performed as described. […] Of the triplicate experiments used to generate mean microarray affinity intensities in standard conditions (within each of which 762 peptides were represented in triplicate), 225 out of 762 values in one of these three experiments were derived from raw data previously reported, but were alternatively analysed as stated. Peptide isoelectric points were calculated with the EMBOSS iep program.
row,Compound,change in microarray binding with 200 mM vs 100 mM NaCl
1,CC(=O)N[C@@H](CCCCN)C(=O)N[C@@H](CC(=O)O)C(=O)N1CCC[C@H]1C(=O)N[C@@H](CO)C(=O)N[C@@H](Cc1ccc(O)cc1)C(=O)N[C@@H](CO)C(=O)N[C@@H](CC(C)C)C(=O)N[C@@H](CCC(N)=O)C(=O)N[C@H](C(=O)N[C@@H](CCC(N)=O)C(=O)N[C@@H](CCCNC(=N)N)C(=O)N[C@@H](CCC(N)=O)C(=O)N[C@H](C(=O)N1CCC[C@H]1C(=O)N[C@H](C(N)=O)C(C)C)C(C)C)C(C)C [I-P2] (Ac-KDPSYSLQVQRQVPV-NH2),did not display any change in binding
2,CC(=O)N[C@@H](CCC(=O)O)C(=O)N[C@@H](Cc1c[nH]cn1)C(=O)NCC(=O)NCC(=O)NCC(=O)N[C@@H](CC(C)C)C(=O)NCC(=O)N[C@@H](CC(C)C)C(=O)NCC(=O)N[C@@H](C)C(=O)N[C@@H](C)C(=O)N[C@@H](CC(C)C)C(=O)NCC(=O)N[C@@H](C)C(=O)NCC(N)=O [I-P264] (Ac-EHGGGLGLGAALGAG-NH2),did not display any change in binding

# Test: Competitive microarray selectivity screening with α-2,8/9-PSA
# Type: binding, Escherichia coli
# Conditions: 10% competing α-2,8/9-PSA
# Method: Competitive microarray screening with α-2,8/9-PSA was conducted in order to assess selective binding of peptides to α-2,8-PSA. The definition of percent selectivity at 10% competing glycan was applied to enable selectivity comparisons amongst a larger set of peptides[25] […] However, the use of an isomeric polymer is a more stringent assessment of selectivity; here, selective binding is guided by three-dimensional conformation and not additionally by differences in functional groups.
# as §1, with “NaCl. […]” for “NaCl.”
row,Compound,selectivity mark in Table 1
1,CC(=O)N[C@@H](CC(N)=O)C(=O)N[C@@H](CCCNC(=N)N)C(=O)N[C@H](C(=O)N[C@H](C(=O)N[C@@H](CC(C)C)C(=O)N[C@@H](CCCNC(=N)N)C(=O)N[C@@H](CC(N)=O)C(=O)N[C@@H](CC(C)C)C(=O)NCC(=O)N[C@@H](CC(N)=O)C(=O)NCC(=O)N[C@H](C(=O)N[C@@H](CO)C(=O)N[C@@H](CC(C)C)C(=O)N1CCC[C@H]1C(N)=O)[C@@H](C)O)C(C)C)[C@@H](C)O [II-P336] (Ac-NRTVLRNLGNGTSLP-NH2),II-P336* (Peptides with selectivity >80%)
2,"AISSPLLKNPFRGGGS [II-P214, phage display screening peptide with W8K mutation]",II-P214* (Peptides with selectivity >80%)

# Same assay, conditions: binding to 10 μM α-2,8-PSA (CA) with 10% competing α-2,8/9-PSA; ± SD of triplicate intra-assay measurements; SD
row,Compound,% selectivity
1,AALSPRRTRPSTSHF [I-P85],59 ± 5%
2,"AISSPLLRNPFRGGGS [II-P213, phage display screening peptide with W8R mutation]",66 ± 9%
3,FRVKICRKEARKRAA [I-P278],43 ± 8%
4,FSRKGVSAQRTVRLR [I-P103],55 ± 11%
5,"GGKGGGKGGGKGGGK [I-P380, de novo peptide composed of lysine and glycine residues]",56 ± 7%
6,"GRTSAKTGAPVATNN [I-P344, Siglec-11-derived peptide with P5A mutation]",85 ± 8%
7,"GRTSPKAGAPVATNN [I-P346, Siglec-11-derived peptide with T7A mutation]",91 ± 15%
8,"GSGSGTDFTLKISRV [II-P35, peptide designed from mAb735]",53 ± 6%
9,"KGGGKGGGKGGGKGG [I-P379, de novo peptide composed of lysine and glycine residues]",61 ± 7%
10,"KGKGKGKGKGKGKGK [I-P378, de novo designed peptide with alternating Lys and Gly residues]",60 ± 9%
11,KIHTGQPLRGPGFGL [I-P323],86 ± 8%
12,LKVTALTKKPDVYIP [I-P62],67 ± 17%
13,LSNAFFLKVTALTKK [I-P59],52 ± 10%
14,LSPRRTRPSTSHFSV [I-P86],62 ± 10%
15,NAFFLKVTALTKKPD [I-P60],70 ± 18%
16,"PGSGNTKYNEKFKGK [II-P77, peptide designed from mAb735]",49 ± 5%
17,QELHYASLSFQGLRL [I-P307],80 ± 14%
18,RKGVSAQRTVRLRVA [I-P104],45 ± 4%
19,"TLPAILQASGTRGGGS [II-P145, phage display screening peptide with S8A mutation]",81 ± 16%
20,VDFSRKGVSAQRTVR [I-P102],59 ± 10%
21,VKICRKEARKRAAAE [I-P279],46 ± 12%
22,"VPYTFGGGTRLEIKG [II-P50, peptide designed from mAb735]",71 ± 9%
23,"WFKGKTSPKTGAPVA [I-P333, Siglec-11-derived peptide with R5K mutation]",59 ± 2%
24,"WFKGRTSPKTGAPVA [I-P330, Siglec-11-derived peptide]",35 ± 1%
25,WGPRTLGLELRGVRA [I-P143],37 ± 1%
26,YSEIKIHTGQPLRGP [I-P321],85 ± 18%
27,YWFKGRTSPKTGAPV [I-P23],43 ± 3%

# Test: Fluorescence anisotropy (FA) assay of peptide–PSA binding
# Set-up: species or system Escherichia coli
# Conditions: FA titration; N-acetylated, C-terminally TAMRA-labelled peptide 20 nM; CA 0–1500 μM; PBS pH 7.4 (10 mM phosphate, 100 mM NaCl); 3 h, ~20 °C; four-parameter logistic fit; at least two independent experiments, at least triplicate; * = accuracy likely poor (SE > KD)
# Method: Peptides (Table 2) were synthesized at >95% purity (confirmed with HPLC) by Biomatik (see Supplementary Information). All peptides were N-terminally acetylated and C-terminally labelled with tetramethylrhodamine dye (TAMRA). TAMRA was chosen as a label due to its pH insensitivity compared to FAM (fluorescein) and related dyes commonly used for fluorescence assays. Experiments were conducted in black 384-well plates with non-binding surface (NBS, Corning, Inc.) to minimize background binding and enhance signal-to-noise ratio in the fluorescence-based binding assay. Titrations were carried out through addition of TAMRA-labelled peptide (8 μL, final concentration 20 nM) to CA (72 μL, final concentrations 0–1500 μM) in PBS, pH 7.4 (10 mM phosphate, 100 mM NaCl), and solutions were incubated with agitation to equilibrium at room temperature (3 h, ~20 °C). Parallel and perpendicular intensities were subsequently measured at 530 nm excitation (band width 5 nm) and 580 nm emission (band width 20 nm) in fluorescence polarization mode with a Tecan Infinite M1000 Pro plate reader. Total fluorescence intensities were also measured as a control for fluorophore properties with target binding; fluorescence intensities of free peptide were determined to be approximately equivalent to intensities with peptide–CA mixtures. At higher concentrations of free CA (control with no peptide addition), attenuation of detected light differed in parallel and perpendicular planes, so respective intensities were subtracted from peptide–CA intensities prior to anisotropy calculations. […] Unique samples were screened in at least triplicate within each titration experiment, and each peptide titration was carried out at least twice. In experimental repeats, peptide locations on plates were varied to prevent location-specific effects, if any, and different combinations of peptides were assessed at once. Anisotropies were calculated from corrected parallel and perpendicular intensities, and values were fit to the four-parameter logistic binding model[70] in MATLAB. Prior to curve fitting, anisotropy values for each peptide were transformed through subtraction of minimum values to enhance comparison between peptides. The resulting translations in binding curves were identical, within error, to change in anisotropy curves obtained through subtraction of anisotropy of free labelled peptide. Bmax and KD values obtained were used in the calculation of Bmax/KD ratios for comparison to microarray intensity values, and the Pearson correlation coefficient (r) was determined.
row,Compound,Kd
1,CC(=O)N[C@@H](CCCCN)C(=O)N[C@@H](CC(=O)O)C(=O)N1CCC[C@H]1C(=O)N[C@@H](CO)C(=O)N[C@@H](Cc1ccc(O)cc1)C(=O)N[C@@H](CO)C(=O)N[C@@H](CC(C)C)C(=O)N[C@@H](CCC(N)=O)C(=O)N[C@H](C(=O)N[C@@H](CCC(N)=O)C(=O)N[C@@H](CCCNC(=N)N)C(=O)N[C@@H](CCC(N)=O)C(=O)N[C@H](C(=O)N1CCC[C@H]1C(=O)N[C@H](C(N)=O)C(C)C)C(C)C)C(C)C [I-P2] (Ac-KDPSYSLQVQRQVPV-NH2),405 µM
2,CC[C@H](C)[C@H](NC(C)=O)C(=O)N[C@@H](Cc1ccc(O)cc1)C(=O)N1CCC[C@H]1C(=O)NCC(=O)N[C@@H](CO)C(=O)NCC(=O)N[C@@H](CC(N)=O)C(=O)N[C@H](C(=O)N[C@@H](CCCCN)C(=O)N[C@@H](Cc1ccc(O)cc1)C(=O)N[C@@H](CC(N)=O)C(=O)N[C@@H](CCC(=O)O)C(=O)N[C@@H](CCCCN)C(=O)N[C@@H](Cc1ccccc1)C(=O)N[C@@H](CCCCN)C(N)=O)[C@@H](C)O [II-P76] (Ac-IYPGSGNTKYNEKFK-NH2),1290 µM
3,CC(=O)N[C@@H](CC(N)=O)C(=O)N[C@@H](CCCNC(=N)N)C(=O)N[C@H](C(=O)N[C@H](C(=O)N[C@@H](CC(C)C)C(=O)N[C@@H](CCCNC(=N)N)C(=O)N[C@@H](CC(N)=O)C(=O)N[C@@H](CC(C)C)C(=O)NCC(=O)N[C@@H](CC(N)=O)C(=O)NCC(=O)N[C@H](C(=O)N[C@@H](CO)C(=O)N[C@@H](CC(C)C)C(=O)N1CCC[C@H]1C(N)=O)[C@@H](C)O)C(C)C)[C@@H](C)O [II-P336] (Ac-NRTVLRNLGNGTSLP-NH2),577 µM

# Same assay, conditions: PSA concentration 1500 µM; ± inter-assay SD, at least two independent experiments; SD
row,Compound,Non-adjusted anisotropy
1,CC(=O)N[C@@H](CCCCN)C(=O)N[C@@H](CC(=O)O)C(=O)N1CCC[C@H]1C(=O)N[C@@H](CO)C(=O)N[C@@H](Cc1ccc(O)cc1)C(=O)N[C@@H](CO)C(=O)N[C@@H](CC(C)C)C(=O)N[C@@H](CCC(N)=O)C(=O)N[C@H](C(=O)N[C@@H](CCC(N)=O)C(=O)N[C@@H](CCCNC(=N)N)C(=O)N[C@@H](CCC(N)=O)C(=O)N[C@H](C(=O)N1CCC[C@H]1C(=O)N[C@H](C(N)=O)C(C)C)C(C)C)C(C)C [I-P2] (Ac-KDPSYSLQVQRQVPV-NH2),35.8 ± 11.5

# Same assay, conditions: from FA curve fits, among the peptides characterised with FA
row,Compound,Bmax/KD ratio (binding potential)
1,CC(=O)N[C@@H](CC(N)=O)C(=O)N[C@@H](CCCNC(=N)N)C(=O)N[C@H](C(=O)N[C@H](C(=O)N[C@@H](CC(C)C)C(=O)N[C@@H](CCCNC(=N)N)C(=O)N[C@@H](CC(N)=O)C(=O)N[C@@H](CC(C)C)C(=O)NCC(=O)N[C@@H](CC(N)=O)C(=O)NCC(=O)N[C@H](C(=O)N[C@@H](CO)C(=O)N[C@@H](CC(C)C)C(=O)N1CCC[C@H]1C(N)=O)[C@@H](C)O)C(C)C)[C@@H](C)O [II-P336] (Ac-NRTVLRNLGNGTSLP-NH2),highest
